US20230028880A1, “CD38-BINDING AGENTS AND USES THEREOF” (Biohaven Therapeutics Ltd., priority 2019, published 2023)
“And” between values parts separate entries of the source, which are not always exact repeats. Equal entries are not always repeated. “Also recorded” adds a separate entry of the source.

Legend:
[1] = tested on: Daudi cells; assay: KILR ADCC killing assay: KILR-transfected Daudi cells with purified NK cells (% dead cells); assay type: cell-based; conditions: for % dead cells, KILR ADCC killing assay: KILR Daudi cells with purified NK cells, duplicate columns
In short: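 Daudi cells carrying a KILR ePL-tagged beta-gal reporter were co-cultured with purified NK cells; cell death releases the reporter into the medium. Complementing enzyme acceptor in the detection reagent gives chemiluminescence, read as % dead cells.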

[2] = tested on: CD56+CD138- CIML NK cells; assay: Patient bone marrow with CIML NK cells: NK cell fratricide; assay type: cell-based, human; conditions: CIML NK cells co-incubated with patient bone marrow for 4 hrs (FIG. 8)
Experimental: Patient bone marrow (3 ml) and blood (20 ml) were shipped at ambient temperature from Discovery Biosciences. Bone marrow was diluted 1:1 with PBS, and […] of bone marrow-PBS mixture was aliquoted into 96 deep well plates. Bone marrow cells were incubated overnight until CIML cells were added next day.
PBMC were isolated from blood by Ficoll density gradient centrifugation. PBMC were centrifuged at 400 g for 10 min and re-suspended in EasySep buffer. NK cells were isolated using NK cell isolation kits from […] Technologies according to kit's manufacturers' instructions.
NK cells were re-suspended at 1×10^6 cells/ml in XVIVO15, 10% Human Serum, IL-15 (50 ng/ml), IL-12 (10 ng/ml), IL-18 (50 ng/ml), and incubated for 18 hrs. Following overnight incubation with cytokines, NK cells were washed twice with PBS 5% Human Serum Albumin, counted and re-suspended at a cell density of 2×10^5 cells/ml of XVIVO15 media. Twenty microliters (4000 cells) were added per each well containing 50 µl of bone marrow: PBS mixture. […] Control wells received XVIVO15 media. Well contents were mixed by pipetting up and down and plates were centrifuged at 400 g for 1 min.
The assay was then incubated for 4 hrs at 37° C. 5% CO2. […] Finally, cells were re-suspended in 200 µl of FACS Buffer and analyzed using Attune Flow Cytometer. Data were analyzed using FlowJo software and graphed using GraphPad Prism.

[3] = tested on: Effector cells (ADCC reporter cells) with Daudi cells; assay: ADCC reporter assay: Daudi cells, IVIG and ADCC reporter effector cells (luciferase, RLU); assay type: cell-based; conditions: IVIG; for Luminescence, ADCC reporter assay: duplicate columns
In short: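 Daudi targets (5,000/well) were combined with compound (8 concentrations, ½-log steps), human IVIG added at 40 ug/mL, and 37,500 ADCC reporter effector cells per well. After 18 h at 37° C and equilibration to 25° C, luciferase luminescence was read.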

CCCCC[C@@H]1NC(=O)[C@H](CCCNC(=N)N)NC(=O)[C@H](C)NC(=O)CSC[C@@H](C(=O)NCCOCCOCCOCCOCCOCCOCCn2nnc3c2CCC2C(CC3)C2COC(=O)N2CCC(C(=O)NCC(=O)N[C@H](CCC(=O)N[C@H](CCC(=O)N[C@H](CCC(=O)O)C(=O)N[C@H](CCC(=O)N[C@H](CCC(=O)NCC(=O)NCC(=O)N[C@@H](CC(=O)O)C(=O)N[C@H]3CSSC[C@@H](C(=O)N[C@H](C(=O)O)[C@@H](C)O)NC(=O)[C@H](Cc4c[nH]c5ccccc45)NC(=O)[C@H](C(C)C)NC(=O)[C@H](CC(C)C)NC(=O)[C@H](CCC(=O)O)NC(=O)CNC(=O)[C@H](CC(C)C)NC(=O)[C@H](Cc4c[nH]cn4)NC(=O)[C@H](Cc4c[nH]c5ccccc45)NC(=O)[C@H](C)NC3=O)C(=O)O)C(=O)O)C(=O)O)C(=O)O)CC2)NC(=O)[C@H](CC(=O)O)NC(=O)[C@H](CCCCC)NC(=O)[C@H](Cc2ccc(-c3ccccc3)cc2)NC(=O)[C@H](CC(C)C)NC(=O)[C@H](C(C)C)NC(=O)CNC(=O)[C@H](CC(=O)O)NC(=O)[C@H](Cc2c[nH]cn2)NC(=O)[C@H](Cc2ccc(O)cc2)NC1=O (stereo partly drawn) [I-17]
EC50 ([1]; KILR Daudi cells, purified NK cells, one set of experiments (FIG. 3)): 5.9 nM
% dead cells, KILR ADCC killing assay ([1]; compound 0.3 nM): 5.8% and 5.1%
% dead cells, KILR ADCC killing assay ([1]; compound 1 nM): 5.6%
% dead cells, KILR ADCC killing assay ([1]; compound 3 nM): 6.4% and 7.1%
% dead cells, KILR ADCC killing assay ([1]; compound 10 nM): 7% and 7.7%
% dead cells, KILR ADCC killing assay ([1]; compound 100 nM): 8.9% and 10.1%
% dead cells, KILR ADCC killing assay ([1]; compound 300 nM): 8.5% and 9.6%
NK cell numbers / NK cell fratricide [2]: NK cell numbers did not change; also recorded: No or low level of undesired NK cell fratricide
EC50 ([3]; ADCC reporter assay): 5.9 nM
EC70 ([3]; ADCC reporter cells, 18 h, one set of experiment (FIG. 2)): about 2.7 nM
Luminescence, ADCC reporter assay ([3]; compound 0.3 nM, 18 h): 26632 RLU and 25947 RLU
Luminescence, ADCC reporter assay ([3]; compound 1 nM, 18 h): 32303 RLU and 36226 RLU
Luminescence, ADCC reporter assay ([3]; compound 3 nM, 18 h): 50671 RLU and 54979 RLU
Luminescence, ADCC reporter assay ([3]; compound 10 nM, 18 h): 63014 RLU and 62702 RLU
Luminescence, ADCC reporter assay ([3]; compound 30 nM, 18 h): 69329 RLU and 70980 RLU
Luminescence, ADCC reporter assay ([3]; compound 100 nM, 18 h): 70908 RLU and 75233 RLU
Luminescence, ADCC reporter assay ([3]; compound 300 nM, 18 h): 69068 RLU and 69848 RLU
Luminescence, ADCC reporter assay ([3]; compound 1000 nM, 18 h): 60578 RLU and 59440 RLU
